The term IC50 denotes the concentration that inhibits the measured activity by half. As usually defined, the inhibition is the percentage by which the read-out fell short of the control.

The values below come from patent US20250092066A1, “SUBSTITUTED BICYCLIC HETEROCYCLES AS MALT-1 INHIBITORS” (AURIGENE ONCOLOGY LIMITED, priority 2022, published 2025).

Structures are written as SMILES.

In this assay the target is MALT-1 (Isoform1) (Homo sapiens (Human), UniProt Q9UDY8). Nature of the assay: Biochemical fluorescent assay of MALT-1 (Isoform1) enzyme inhibition. The note with it: recombinant MALT-1 (Isoform1); for Percent Inhibition (@ 1 μM) / inhibition at 1 µM: compound at 1 μM; for IC50: 50 μM AC-LRSR-MAC substrate, 240 min; for inhibition at 1 µM: read-out: Percent Inhibition (@ 1 μM). The procedure:
The potency of compounds to inhibit MALT-1 (Isoform1) enzyme was tested in a Fluorescent assay using recombinant MALT-1 (Isoform1, aa-840) generated in-house. The assay buffer was 50 mM HEPES (pH 7.5), 100 mM NaCl, 10 mM DTT, 1 mM EDTA, 0.9 M sodium citrate, 0.01% CHAPS. 1.5 nM of MALT-1 enzyme was incubated with various concentrations of test compounds ([…]) (1% DMSO) in the presence of buffer for 30 minutes at 30° C. The protease reaction was initiated by adding 50 μM of AC-LRSR-MAC (Peptide International, USA) substrate and incubated for 240 min. After 240 min incubation, fluorescence emission of the samples at 460 nm was measured at an excitation of 355 nm. The percent inhibition was calculated using the following formula: […]. IC50 values were determined by fitting the dose-response data to sigmoidal curve fitting equation using Graph pad prism software VS.

MALT-1 (Isoform1), sequence (Q9UDY8 whole entry, canonical isoform): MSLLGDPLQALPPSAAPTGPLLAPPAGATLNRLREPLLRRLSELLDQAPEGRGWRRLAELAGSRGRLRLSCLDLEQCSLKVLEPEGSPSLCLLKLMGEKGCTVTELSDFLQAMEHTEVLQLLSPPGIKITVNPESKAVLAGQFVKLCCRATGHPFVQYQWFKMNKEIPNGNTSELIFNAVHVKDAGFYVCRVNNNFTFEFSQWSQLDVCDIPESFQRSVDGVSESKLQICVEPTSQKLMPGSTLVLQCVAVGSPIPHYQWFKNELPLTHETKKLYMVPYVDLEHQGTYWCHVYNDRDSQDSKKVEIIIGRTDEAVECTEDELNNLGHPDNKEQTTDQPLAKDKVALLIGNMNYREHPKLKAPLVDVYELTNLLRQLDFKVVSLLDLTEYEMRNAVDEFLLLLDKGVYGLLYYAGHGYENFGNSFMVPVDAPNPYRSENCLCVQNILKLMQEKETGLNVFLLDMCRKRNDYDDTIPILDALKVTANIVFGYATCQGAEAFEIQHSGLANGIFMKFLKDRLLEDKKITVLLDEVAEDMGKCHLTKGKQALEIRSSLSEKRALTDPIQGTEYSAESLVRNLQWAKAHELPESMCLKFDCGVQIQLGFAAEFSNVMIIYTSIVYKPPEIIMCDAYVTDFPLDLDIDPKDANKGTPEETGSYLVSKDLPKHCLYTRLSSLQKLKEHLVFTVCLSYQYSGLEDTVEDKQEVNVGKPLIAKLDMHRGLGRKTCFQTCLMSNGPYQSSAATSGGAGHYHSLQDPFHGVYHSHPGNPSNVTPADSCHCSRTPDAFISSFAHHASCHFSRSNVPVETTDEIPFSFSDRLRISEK

Turning to `COC(C)c1c(NC(=O)Nc2cc(Cl)c3nc(C)nn3c2)cnc(C)c1Br` (single isomer, unassigned) [Example 35a, 1-(5-bromo-4-(1-methoxyethyl)-6-methylpyridin-3-yl)-3-(8-chloro-2-methyl-[1,2,4]triazolo[1,5-a]pyridin-6-yl)urea], the “Percent Inhibition (@ 1 μM)” value is listed as 88% and the IC50 fell in the range of 51 to 250 nM.

Consider `Cc1nc2c(F)cc(NC(=O)Nc3cnc4cc(Cl)nn4c3C3CC3)cn2n1` [Example 15], for which the inhibition at 1 µM worked out at 79% and the IC50 lay in the range of 51 to 250 nM.

`Cc1nc2c(F)cc(NC(=O)Nc3cnc4cc(Cl)nn4c3C3CCCO3)cn2n1` (stereo not shown) [Example 12]: the inhibition at 1 µM stood at 81% and the half-maximal inhibitory concentration (IC50) is 51 to 250 nM.

With `COC(C)c1c(NC(=O)Nc2cc(Cl)c3nc(C)nn3c2)cnc(C)c1Br` (single isomer, unassigned) [Example 35b, 1-(5-bromo-4-(1-methoxyethyl)-6-methylpyridin-3-yl)-3-(8-chloro-2-methyl-[1,2,4]triazolo[1,5-a]pyridin-6-yl)urea], the “Percent Inhibition (@ 1 μM)” value was found to be 8% and the IC50 is over 250 nM.

Consider `CO[C@@H](C)c1c(NC(=O)Nc2cc(F)c3nc(C)nn3c2)cnc2cc(C#N)nn12` [Example 47], for which the inhibition at 1 µM worked out at 54% and the IC50 is under 50 nM.

For the compound `CO[C@@H](C)c1c(NC(=O)Nc2cc(F)c3ncnn3c2)cnc2cc(C(F)F)nn12` [Example 45], the inhibition at 1 µM was determined as 78% and the IC50 was 51 to 250 nM.

On to `CO[C@@H](C)c1c(NC(=O)Nc2cc(F)c3nc(C)nn3c2)cnc2cc(F)nn12` [Example 24], for which the inhibition at 1 µM came to 80% and the IC50 was 51 to 250 nM.

In the case of `CO[C@@H](C)c1c(NC(=O)Nc2cc(F)c3ncc(C)n3c2)cnc2cc(Cl)nn12` [Example 44], the inhibition at 1 µM amounted to 90% and the half-inhibitory concentration (IC50) lay in the range of 51 to 250 nM.

As for `CO[C@@H](C)c1c(NC(=O)Nc2cc(C#N)c3nc(C)nn3c2)cnc2cc(Cl)nn12` [Example 14], the inhibition at 1 µM was determined as 99% and the 50% inhibitory concentration (IC50) was under 50 nM.

As for `COC(C)c1c(NC(=O)Nc2cc(Cl)c3nc(C)nn3c2)cnc(C)c1Br` (racemic) [Example 35, 1-(5-bromo-4-(1-methoxyethyl)-6-methylpyridin-3-yl)-3-(8-chloro-2-methyl-[1,2,4]triazolo[1,5-a]pyridin-6-yl)urea], the inhibition at 1 µM was 72% and the IC50 was over 250 nM.

In the case of `CO[C@@H](C)[C@@H](OC)c1c(NC(=O)Nc2cc(F)c3nc(C)nn3c2)cnc2cc(Cl)nn12` [Example 21], the inhibition at 1 µM was 96% and the IC50 was over 250 nM.

For `Cc1nc2c(C3CC3)c(NC(=O)Nc3cc(Cl)c4ncnn4c3)cnc2s1` [Example 38, 1-(8-chloro-[1,2,4]triazolo[1,5-a]pyridin-6-yl)-3-(7-cyclopropyl-2-methylthiazolo[5,4b]pyridin-6-yl)urea], the inhibition at 1 µM stood at 62% and the IC50 is over 250 nM.

Turning to `Cc1nc2c(F)cc(NC(=O)Nc3cnc4cc(Cl)nn4c3C3(C(F)(F)F)CC3)cn2n1` [Example 23], the inhibition at 1 µM amounted to 98% and the IC50 is over 250 nM.

As for `CO[C@@H](C)c1c(NC(=O)Nc2cc(C#N)c3ncnn3c2)cnc2cc(Cl)nn12` [Example 18], the inhibition at 1 µM turned out to be 98% and the concentration for half-maximal inhibition (IC50) is under 50 nM.

`CO[C@@H](C)c1c(NC(=O)Nc2cc(F)c3nc(C)nn3c2)cnc2cc(Br)nn12` [Example 25]: the inhibition at 1 µM is 95% and the IC50 is under 50 nM.

Take `COC(C)c1c(NC(=O)Nc2cc(F)c3nc(C)nn3c2)cnc2sc(C)nc12` (stereo not shown) [Example 39, 1-(8-fluoro-2-methyl-[1,2,4]triazolo[1,5-a]pyridin-6-yl)-3-(7-(1-methoxyethyl)-2-methylthiazolo[5,4-b]pyridin-6-yl)urea]: the inhibition at 1 µM stood at 77% and the half-maximal inhibitory concentration (IC50) was over 250 nM.

With `CO[C@@H](C)c1c(NC(=O)Nc2cc(F)c3nc(CN(C)C)nn3c2)cnc2cc(Cl)nn12` [Example 29], the inhibition at 1 µM worked out at 83% and the concentration for half-maximal inhibition (IC50) was 51 to 250 nM.

Regarding `COC(c1c(NC(=O)Nc2cc(F)c3nc(C)nn3c2)cnc2cc(Cl)nn12)C(C)C` (single isomer, unassigned) [Example 31b, 1-(2-chloro-7-(1-methoxy-2-methylpropyl)pyrazolo[1,5-a]pyrimidin-6-yl)-3-(8-fluoro-2-methyl-[1,2,4]triazolo[1,5-a]pyridin-6-yl)urea], the “Percent Inhibition (@ 1 μM)” value came to 99% and the half-maximal inhibitory concentration (IC50) is under 50 nM.

Regarding `CO[C@@H](C)c1c(NC(=O)Nc2cc(F)c3nc(C)cn3c2)cnc2cc(Cl)nn12` [Example 41], the inhibition at 1 µM is 69% and the IC50 is over 250 nM.

Regarding `CO[C@@H](C)c1c(NC(=O)Nc2cc(Cl)c3nc(Cl)nn3c2)cnc2cc(Cl)nn12` [Example 30], the inhibition at 1 µM turned out to be 96% and the concentration for half-maximal inhibition (IC50) is under 50 nM.
